What all share (assay type): binding
In assay [1] the target is T1, dCRY; dCRY(WT)-SORTC-SL (Drosophila melanogaster, UniProt O77059, H378N).
T1 construct: gene cry; full length, N-terminal twin-Strep tag, C-terminal sort-tag (LPGTG) ligated to GGGGC-nitroxide (LPGTGGGGC); E. coli CmpX13
Briefly: cw-ESR, UV-vis and 4P-DEER of bound flavin after blue light. To be noted: pH 8; anionic semiquinone formed in light.

Assay [2] deals with T2, dCRY; dCRY(WT)-SORTC-SL (Drosophila melanogaster, UniProt O77059, H378R).
T2 construct: gene cry; full length, N-terminal twin-Strep tag, C-terminal sort-tag (LPGTG) ligated to GGGGC-nitroxide (LPGTGGGGC); E. coli CmpX13
T2 sequence (O77059 1-539 H378R): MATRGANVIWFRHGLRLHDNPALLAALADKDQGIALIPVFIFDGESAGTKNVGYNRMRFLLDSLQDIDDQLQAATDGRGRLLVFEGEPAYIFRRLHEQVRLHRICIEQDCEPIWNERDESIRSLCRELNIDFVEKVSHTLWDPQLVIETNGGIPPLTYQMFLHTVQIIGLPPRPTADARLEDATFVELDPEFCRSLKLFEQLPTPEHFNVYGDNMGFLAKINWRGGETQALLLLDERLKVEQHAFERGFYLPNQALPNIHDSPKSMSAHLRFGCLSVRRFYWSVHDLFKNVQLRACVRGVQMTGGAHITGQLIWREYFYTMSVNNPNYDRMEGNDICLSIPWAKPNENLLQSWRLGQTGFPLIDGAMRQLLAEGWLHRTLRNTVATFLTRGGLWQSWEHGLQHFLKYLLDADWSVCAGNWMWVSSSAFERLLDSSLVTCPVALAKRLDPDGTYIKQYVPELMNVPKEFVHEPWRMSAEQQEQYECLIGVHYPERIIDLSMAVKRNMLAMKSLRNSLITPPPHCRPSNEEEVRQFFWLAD
The description is as above. To be noted: pH 8; anionic semiquinone formed in light.

Assay [3] addresses T3, dCRY; dCRY(WT)-SORTC-SL (Drosophila melanogaster, UniProt O77059, H378R/L405E/C416N).
T3 construct: gene cry; full length, N-terminal twin-Strep tag, C-terminal sort-tag (LPGTG) ligated to GGGGC-nitroxide (LPGTGGGGC); E. coli CmpX13
The description is as above. To be noted: pH 8; neutral semiquinone formed in light.

Assay [4] concerns the target T4, dCRY; dCRY(WT)-SORTC-SL (Drosophila melanogaster, UniProt O77059, H378N/L405E/C416N).
T4 construct: gene cry; full length, N-terminal twin-Strep tag, C-terminal sort-tag (LPGTG) ligated to GGGGC-nitroxide (LPGTGGGGC); E. coli CmpX13
The assay is described as above. To be noted: pH 8; neutral semiquinone formed in light.

Assay [5] addresses T5, dCRY; dCRY(WT)-SORTC-SL (Drosophila melanogaster, UniProt O77059, L405E/C416N).
T5 construct: gene cry; full length, N-terminal twin-Strep tag, C-terminal sort-tag (LPGTG) ligated to GGGGC-nitroxide (LPGTGGGGC); E. coli CmpX13
Kind of assay: UV-vis, ENDOR and cw-ESR of bound flavin, blue-light photoreduction. To be noted: pH 8; neutral semiquinone formed in light.

Assay [6] concerns the target T6, dCRY; dCRY(WT)-SORTC-SL (Drosophila melanogaster, UniProt O77059, H378K/L405E/C416N).
T6 construct: gene cry; full length, N-terminal twin-Strep tag, C-terminal sort-tag (LPGTG) ligated to GGGGC-nitroxide (LPGTGGGGC); E. coli CmpX13
Kind of assay: cw-ESR, UV-vis and 4P-DEER of bound flavin after blue light. To be noted: pH 8; neutral semiquinone formed in light.

Assay [7] addresses T7, dCRY; dCRY(WT)-SORTC-SL (Drosophila melanogaster, UniProt O77059, H378K).
T7 construct: gene cry; full length, N-terminal twin-Strep tag, C-terminal sort-tag (LPGTG) ligated to GGGGC-nitroxide (LPGTGGGGC); E. coli CmpX13
The description is as above. To be noted: pH 8; anionic semiquinone formed in light.

Assay [8] addresses T8, dCRY; dCRY(WT)-SORTC-SL (Drosophila melanogaster, UniProt O77059).
T8 construct: gene cry; full length, N-terminal twin-Strep tag, C-terminal sort-tag (LPGTG) ligated to GGGGC-nitroxide (LPGTGGGGC); E. coli CmpX13
Kind of assay: X-ray crystal structure, […] A; also UV-vis and ENDOR. To be noted: dark state; crystals at pH 9; magnesium.

Each structure is given as a SMILES string.

T6 sequence (O77059 1-539 H378K/L405E/C416N): as the sequence (O77059 1-539 H378R) above, with R378K, L405E, C416N counted along it
T4 sequence (O77059 1-539 H378N/L405E/C416N): as the sequence (O77059 1-539 H378R) above, with R378N, L405E, C416N counted along it
T3 sequence (O77059 1-539 H378R/L405E/C416N): as the sequence (O77059 1-539 H378R) above, with L405E, C416N counted along it
T8 sequence (O77059 1-539): as the sequence (O77059 1-539 H378R) above, with R378H counted along it
T5 sequence (O77059 1-539 L405E/C416N): as the sequence (O77059 1-539 H378R) above, with R378H, L405E, C416N counted along it
T1 sequence (O77059 1-539 H378N): as the sequence (O77059 1-539 H378R) above, with R378N counted along it
T7 sequence (O77059 1-539 H378K): as the sequence (O77059 1-539 H378R) above, with R378K counted along it

In the case of `Cc1cc2nc3c(=O)[nH]c(=O)nc-3n(C[C@H](O)[C@H](O)[C@H](O)COP(=O)(O)OP(=O)(O)OC[C@H]3O[C@@H](n4cnc5c(N)ncnc54)[C@H](O)[C@@H]3O)c2cc1C` [FAD], the “cw-ESR, UV-vis and 4P-DEER of bound flavin after blue light” value at dCRY; dCRY(WT)-SORTC-SL [1] is “H378 substitutions (H378K/N/R) led to ASQ formation”; at dCRY; dCRY(WT)-SORTC-SL [2], “H378 substitutions (H378K/N/R) led to ASQ formation”; on dCRY; dCRY(WT)-SORTC-SL [3], “triple substitutions (H378K/N/R, L405E, and C416N) led to NSQ formation”; on dCRY; dCRY(WT)-SORTC-SL [4] it was “triple substitutions (H378K/N/R, L405E, and C416N) led to NSQ formation”; at dCRY; dCRY(WT)-SORTC-SL [6], “triple substitutions (H378K/N/R, L405E, and C416N) led to NSQ formation”; at dCRY; dCRY(WT)-SORTC-SL [7], “H378 substitutions (H378K/N/R) led to ASQ formation”. Also, the “UV-vis, ENDOR and cw-ESR of bound flavin, blue-light photoreduction” value at dCRY; dCRY(WT)-SORTC-SL [5] was “Both WT dCRY and L405E/C416N show characteristic absorption bands of oxidized FAD in the dark”. Moreover, on dCRY; dCRY(WT)-SORTC-SL [8], the “X-ray crystal structure, 2.58 A; also UV-vis and ENDOR” value is “The crystal structure of dCRY-WT-SORTC-SL in the dark state shows that the active site FAD”.

Source of the values: publication PMC7910608, “Tuning flavin environment to detect and control light-induced conformational switching in Drosophila cryptochrome” (Communications Biology, 2021).
